IC50 data for one compound are collected here from ChEMBL document CHEMBL1137300, “Identification of the brominated flame retardant 1,2-dibromo-4-(1,2-dibromoethyl)cyclohexane as an androgen agonist” (J Med Chem, 2006).

The target of assay [1] is T1, Androgen receptor (Rattus norvegicus, UniProt P15207).
T1 sequence (P15207 whole entry): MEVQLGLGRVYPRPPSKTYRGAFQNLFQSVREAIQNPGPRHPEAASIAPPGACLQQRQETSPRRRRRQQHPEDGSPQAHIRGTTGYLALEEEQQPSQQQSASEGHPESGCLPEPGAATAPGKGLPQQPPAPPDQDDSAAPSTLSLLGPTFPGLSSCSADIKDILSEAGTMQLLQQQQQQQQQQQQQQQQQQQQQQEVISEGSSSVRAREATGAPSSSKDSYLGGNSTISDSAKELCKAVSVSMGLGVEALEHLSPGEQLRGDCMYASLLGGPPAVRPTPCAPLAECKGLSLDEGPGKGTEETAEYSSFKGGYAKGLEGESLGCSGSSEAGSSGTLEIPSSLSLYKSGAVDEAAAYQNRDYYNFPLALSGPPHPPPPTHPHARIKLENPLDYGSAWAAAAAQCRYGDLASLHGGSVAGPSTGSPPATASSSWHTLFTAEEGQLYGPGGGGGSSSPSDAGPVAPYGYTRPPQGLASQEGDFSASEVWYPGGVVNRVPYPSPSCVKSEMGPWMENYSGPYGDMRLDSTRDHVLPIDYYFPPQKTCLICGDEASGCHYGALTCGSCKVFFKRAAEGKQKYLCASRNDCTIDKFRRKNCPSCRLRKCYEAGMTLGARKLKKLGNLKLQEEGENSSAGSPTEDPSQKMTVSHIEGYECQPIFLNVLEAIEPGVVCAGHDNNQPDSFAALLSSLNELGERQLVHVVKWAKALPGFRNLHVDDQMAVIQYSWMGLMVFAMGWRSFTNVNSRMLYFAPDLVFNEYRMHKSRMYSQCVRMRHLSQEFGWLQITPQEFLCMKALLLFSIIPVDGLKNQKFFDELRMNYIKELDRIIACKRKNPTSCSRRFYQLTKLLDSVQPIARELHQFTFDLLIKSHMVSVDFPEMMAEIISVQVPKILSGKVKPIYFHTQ
Briefly: Displacement of androgen fluormone from rat androgen receptor.

Assay [2] addresses T2, Androgen receptor (Homo sapiens, UniProt P10275).
T2 sequence (P10275 whole entry): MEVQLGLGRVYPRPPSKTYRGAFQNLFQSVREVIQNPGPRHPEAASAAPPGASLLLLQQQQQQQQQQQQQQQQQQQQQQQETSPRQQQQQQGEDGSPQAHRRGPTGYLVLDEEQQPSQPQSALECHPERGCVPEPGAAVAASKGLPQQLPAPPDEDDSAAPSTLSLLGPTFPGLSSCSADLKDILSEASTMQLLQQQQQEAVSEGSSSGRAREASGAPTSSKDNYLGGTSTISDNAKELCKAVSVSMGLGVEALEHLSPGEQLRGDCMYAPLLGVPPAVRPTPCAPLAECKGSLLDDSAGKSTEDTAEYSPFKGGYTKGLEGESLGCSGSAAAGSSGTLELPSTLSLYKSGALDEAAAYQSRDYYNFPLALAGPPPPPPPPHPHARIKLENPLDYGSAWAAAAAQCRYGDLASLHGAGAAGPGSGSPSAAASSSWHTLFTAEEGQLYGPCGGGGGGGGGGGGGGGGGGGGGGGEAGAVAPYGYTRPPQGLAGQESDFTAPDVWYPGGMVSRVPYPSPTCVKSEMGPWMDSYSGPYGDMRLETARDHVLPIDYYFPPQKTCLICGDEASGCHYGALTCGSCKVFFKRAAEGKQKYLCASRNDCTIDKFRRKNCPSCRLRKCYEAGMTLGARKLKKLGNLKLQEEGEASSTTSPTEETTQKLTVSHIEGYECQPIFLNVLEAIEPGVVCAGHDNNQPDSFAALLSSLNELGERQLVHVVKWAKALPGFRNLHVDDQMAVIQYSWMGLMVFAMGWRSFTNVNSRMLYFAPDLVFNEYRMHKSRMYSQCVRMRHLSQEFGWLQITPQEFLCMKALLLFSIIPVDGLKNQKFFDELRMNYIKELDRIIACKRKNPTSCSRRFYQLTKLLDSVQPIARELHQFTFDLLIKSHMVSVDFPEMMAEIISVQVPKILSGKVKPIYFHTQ
Briefly: Activity against human androgen receptor expressed in HepG2 cells assessed as luciferase reporter gene activation. In general terms: In a reporter assay the amount or activity of a reporter protein is the signal.

The structures appear in SMILES notation. pIC50: −log10 of the molar value.

For the compound `BrCC(Br)C1CCC(Br)C(Br)C1` (configuration not stated), the pIC50 (in general, −log10 of the IC50, conventionally taken in molar units) was 6.79 in assay [1] and 7.37 in assay [2].
